Laboratory results reported in patent publication US20250122174A1 (Shenzhen Yuanli Shenwan Innovative Medicine Co., Ltd., priority 2022, published 2025).

Molecular target: HPK1 (Homo sapiens (Human), UniProt Q92918)
Assay: HPK1 Inhibition Assay (ADP-Glo kinase assay)
Assay type: biochemical
Details: ATP 10 μM
Description: A stock solution of 10 mM test compound was prepared in DMSO. The compound was prepared by 5-fold and 10-point serial dilutions with HPK1 kinase assay buffer. The HPK1 kinase assay buffer contained 40 mM Tris, pH 7.5; 20 mM MgCl2, 0.1 mg/ml BSA, and 50 μM DTT. 7.5 ng/μl of Active HPK1 (Promega, V4098) and 0.1 μg/ml MBP substrate protein were added to the reaction system. The final concentration of ATP in the HPK1 kinase reaction system was 10 μM. Serial diluted compounds were transferred to the reaction system and incubated at room temperature for 1 hr. 5 μL of ADP-Glo™ Reagent (Promega, V9101) was added and incubated for 40 min to stop the kinase reaction and deplete the unconsumed ATP. […] The luminescence was measured with a plate-reading luminometer.

Chain of HPK1 (Q92918 1-346 limits assumed): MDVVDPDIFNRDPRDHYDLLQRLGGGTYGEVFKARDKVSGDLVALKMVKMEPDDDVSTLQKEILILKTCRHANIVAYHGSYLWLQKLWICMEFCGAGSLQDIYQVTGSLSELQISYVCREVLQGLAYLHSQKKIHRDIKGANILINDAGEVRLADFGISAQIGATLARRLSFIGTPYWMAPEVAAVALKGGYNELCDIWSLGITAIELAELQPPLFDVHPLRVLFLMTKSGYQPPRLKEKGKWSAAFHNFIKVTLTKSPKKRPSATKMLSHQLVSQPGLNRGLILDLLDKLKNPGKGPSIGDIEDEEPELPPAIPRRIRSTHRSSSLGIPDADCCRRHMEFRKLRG

SMILES	IC50
Cn1c(C(C)(C)C)nc2c(N3CC[C@@](C)(N)C3)c(NC(=O)c3ccc(=O)n(-c4c(F)cccc4F)n3)ccc21 (single isomer, unassigned) [Example 100, ®-N-(4-(3-amino-3-methylpyrrolidin-1-yl)-2-(tert-butyl)-1-methyl-1H-benzo 111 midazolezol-5-yl)-1-(2,6-difluorophenyl)-6-oxo-1,6-dihydropyridazine-3-carboxamide]	< 100 nM
Cn1c(C(C)(C)C)nc2c(N3CC[C@@](C)(N)C3)c(NC(=O)c3ccc(=O)n(-c4c(F)cccc4F)n3)ccc21 (single isomer, unassigned) [Example 101]	< 100 nM
CC(C)c1nc2c(N3CC[C@](N)(CO)C3)c(NC(=O)c3ccc(=O)n(-c4c(F)cccc4F)n3)ccc2n1C (single isomer, unassigned) [Example 124]	< 100 nM
CC(C)c1nc2c(N3CC[C@](N)(CO)C3)c(NC(=O)c3ccc(=O)n(-c4c(F)cccc4F)n3)ccc2n1C (single isomer, unassigned) [Example 125]	< 100 nM
CC(C)c1nc2c(N3CC[C@](N)(C(F)(F)F)C3)c(NC(=O)c3ccc(=O)n(-c4c(F)cccc4F)n3)ccc2n1C (single isomer, unassigned) [Example 138]	< 100 nM
CC(C)c1nc2c(N3CC[C@](N)(C(F)(F)F)C3)c(NC(=O)c3ccc(=O)n(-c4c(F)cccc4F)n3)ccc2n1C (single isomer, unassigned) [Example 139]	< 100 nM
CC[C@@H]1CN(c2c(NC(=O)c3ccc(=O)n(-c4c(F)cccc4F)n3)ccc3c2cnn3C(C)C)C[C@@H]1N (single isomer, unassigned) [Example 196]	< 100 nM
CC[C@@H]1CN(c2c(NC(=O)c3ccc(=O)n(-c4c(F)cccc4F)n3)ccc3c2cnn3C(C)C)C[C@@H]1N (single isomer, unassigned) [Example 197]	< 100 nM
N[C@H]1CN(c2c(NC(=O)c3ccc(=O)n(-c4c(F)cccc4F)n3)ccc3nn(C4(C(F)(F)F)CC4)cc23)CC12CC2 (single isomer, unassigned) [Example 313]	< 100 nM
CC1(C)CN(c2c(NC(=O)c3ccc(=O)n(-c4c(F)cccc4F)n3)ccc3nn(C4(C(F)(F)F)CC4)cc23)C[C@@H]1N (single isomer, unassigned) [Example 314]	< 100 nM
C[C@]1(O)CCN(c2cc(-c3cnccc3C#N)ccc2NC(=O)c2ccc(=O)n(-c3c(F)cccc3F)n2)C1 (single isomer, unassigned) [Example 353]	< 100 nM
C[C@]1(O)CCN(c2cc(-c3cnccc3C#N)ccc2NC(=O)c2ccc(=O)n(-c3c(F)cccc3F)n2)C1 (single isomer, unassigned) [Example 354]	< 100 nM
N#Cc1ccncc1-c1ccc(NC(=O)c2ccc(=O)n(-c3c(F)cccc3F)n2)c(N2CC[C@@](N)(CO)C2)c1 (single isomer, unassigned) [Example 355]	< 100 nM
N#Cc1ccncc1-c1ccc(NC(=O)c2ccc(=O)n(-c3c(F)cccc3F)n2)c(N2CC[C@@](N)(CO)C2)c1 (single isomer, unassigned) [Example 356]	< 100 nM
N#Cc1ccncc1-c1ccc(NC(=O)c2ccc(=O)n(-c3c(F)cccc3F)n2)c(N2CC[C@](N)(C(F)(F)F)C2)c1 (single isomer, unassigned) [Example 358]	< 100 nM
N#Cc1ccncc1-c1ccc(NC(=O)c2ccc(=O)n(-c3c(F)cccc3F)n2)c(N2CC[C@](N)(C(F)(F)F)C2)c1 (single isomer, unassigned) [Example 359]	< 100 nM
COc1cccc(F)c1-c1nccc(C(=O)Nc2ccc3c(nc(C(F)F)n3C)c2N2CCC(N)C2)c1F (stereo in doubt) [Example 164, N-(4-((S)-3-aminopyrrolidin-1-yl)-2-(difluoromethyl)-1-methyl-1H-benzo[d]imidazol-5-yl)-3-fluoro-2-(2-fluoro-6-methoxyphenyl)isonicotinamide]	< 100 nM
CO[C@@H]1CN(c2c(NC(=O)c3ccc(=O)n(-c4c(F)cccc4F)n3)ccc3c2cnn3C(C)C)C[C@H]1N (stereo in doubt) [Example 200, N-(4-((3R,4R)-3-amino-4-methoxypyrrolidin-1-yl)-1-isopropyl-1H-indazol-5-yl)-1-(2,6-difluorophenyl)-6-oxo-1,6-dihydropyridazine-3-carboxamide]	< 100 nM
COc1cccc(F)c1-c1nccc(C(=O)Nc2cc(F)ccc2N2C[C@@H]3C[C@H]2CN3)c1F [Example 1, N-(2-((1S,4S)-2,5-diazabicyclo[2.2.1]heptan-2-yl)-5-fluorophenyl)-3-fluoro-2-(2-fluoro-6-methoxyphenyl)isonicotinamide]	100 to 1000 nM
COc1cccc(F)c1-c1nccc(C(=O)Nc2cc(F)ccc2N2C[C@H]3C[C@@H]2CN3)c1F [Example 2, N-(2-((1R,4R)-2,5-diazabicyclo[2.2.1]heptan-2-yl)-5-fluorophenyl)-3-fluoro-2-(2-fluoro-6-methoxyphenyl)isonicotinamide]	< 100 nM
COc1cccc(F)c1-c1cccc(C(=O)Nc2cc(F)ccc2N2C[C@H]3C[C@@H]2CN3)c1F [Example 3, N-(2-((1R,4R)-2,5-diazabicyclo[2.2.1]heptan-2-yl)-5-fluorophenyl)-2,2′-difluoro-6′-methoxy-[1,1′-biphenyl]-3-carboxamide]	100 to 1000 nM
COc1ccc(Cl)c(F)c1-c1nccc(C(=O)Nc2cc(F)ccc2N2C[C@H]3C[C@@H]2CN3)c1F [Example 4, N-(2-((1R,4R)-2,5-diazabicyclo[2.2.1]heptan-2-yl)-5-fluorophenyl)-2-(3-chloro-2-fluoro-6-methoxyphenyl)-3-fluoroisonicotinamide]	100 to 1000 nM
COc1ccc(F)c(F)c1-c1nccc(C(=O)Nc2cc(F)ccc2N2C[C@H]3C[C@@H]2CN3)c1F [Example 5, N-(2-((1R,4R)-2,5-diazabicyclo[2.2.1]heptan-2-yl)-5-fluorophenyl)-2-(2,3-difluoro-6-methoxyphenyl)-3-fluoroisonicotinamide]	< 100 nM
COc1cccc(Cl)c1-c1nccc(C(=O)Nc2cc(F)ccc2N2C[C@H]3C[C@@H]2CN3)c1F [Example 6, N-(2-((1R,4R)-2,5-diazabicyclo[2.2.1]heptan-2-yl)-5-fluorophenyl)-2-(2-chloro-6-methoxyphenyl)-3-fluoroisonicotinamide]	100 to 1000 nM
COc1cccc(F)c1-c1nccc(C(=O)Nc2ccc3c(nc(C)n3C)c2C2C[C@H]3C[C@@H]2CN3)c1F (stereo partly drawn) [Example 7, N-(4-((1S,4S)-2-azabicyclo[2.2.1]heptan-5-yl)-1,2-dimethyl-1H-benzo[d]imidazol-5-yl)-3-fluoro-2-(2-fluoro-6-methoxyphenyl)isonicotinamide]	< 100 nM
COc1cccc(F)c1-c1nccc(C(=O)Nc2ccc3c(nc(C)n3C)c2N2CCC(N)CC2)c1F [Example 8, N-(4-(4-aminopiperidin-1-yl)-1,2-dimethyl-1H-benzo[d]imidazol-5-yl)-3-fluoro-2-(2-fluoro-6-methoxyphenyl)isonicotinamide]	< 100 nM
COc1cccc(F)c1-c1nccc(C(=O)Nc2ccc3c(nc(C)n3C)c2N2CCC[C@H]2CO)c1F [Example 9, 3-fluoro-2-(2-fluoro-6-methoxyphenyl)-N-(4-((S)-2-(hydroxymethyl)pyrrolidin-1-yl)-1,2-dimethyl-1H-benzo[d]imidazol-5-yl)isonicotinamide]	100 to 1000 nM
